The molecules below were run on HEK293T cells carrying the ATF4 luciferase reporter (assay: ATF4-Luc assay (in vitro model of vanishing white matter disease)). Settings: Homo sapiens, HEK-293T, 1 μg/mL tunicamycin, 7 hours.
Assay type: cell-based
Description: In order to test exemplary compounds of the invention in a cellular context, a stable VWMD cell line was first constructed. The ATF4 reporter was prepared by fusing the human full-length ATF4 5′-UTR (NCBI Accession No. BCO22088.2) in front of the firefly luciferase (FLuc) coding sequence lacking the initiator methionine as described in Sidrauski et al (eLife 2013). The construct was used to produce recombinant retroviruses using standard methods and the resulting viral supernatant was used to transduce HEK293T cells, which were then subsequently selected with puromycin to generate a stable cell line.
HEK293T cells carrying the ATF4 luciferase reporter were plated on polylysine coated 384-well plates (Greiner Bio-one) at 30,000 cells per well. Cells were treated the next day with 1 μg/mL tunicamycin and 200 nM of a compound of Formula (I) for 7 hours. Luminescence was measured using One Glo (Promega) as specified by the manufacturer. Cells were maintained in DMEM with L-glutamine supplemented with 10% heat-inactivated FBS (Gibco) and Antibiotic-Antimycotic solution (Gibco).
Table 2 below summarizes the EC50 data obtained using the ATF4-Luc assay for exemplary compounds of the invention.
In the case of `O=C(NC12CC(C(=O)Nc3ccc(OC(F)(F)F)cn3)(C1)C2)c1ccc(OC(F)(F)F)cn1` [Compound 315, 5-(trifluoromethoxy)-N-(3-{[5-(trifluoromethoxy)pyridin-2-yl]carbamoyl}bicyclo[1.1.1]pentan-1-yl)pyridine-2-carboxamide], the EC50 is reported as 0.5 to 1 µM.
In the case of `O=C(COc1ccc(Cl)c(F)c1)NC12CCC(C(=O)Nc3ccc(C(F)(F)F)cn3)(CC1)C(O)C2` (stereo not shown) [Compound 316, 4-[2-(4-chloro-3-fluorophenoxy)acetamido]-2-hydroxy-N-[5-(trifluoromethyl)pyridin-2-yl]bicyclo[2.2.2]octane-1-carboxamide], the EC50 is reported as 0.5 to 1 µM.
`CC(O)(CNC(=O)C12CC(NC(=O)COc3ccc(Cl)c(F)c3)(C1)C2)c1ccc(Cl)cc1` (stereo not shown) [Compound 317, 3-[2-(4-chloro-3-fluorophenoxy)acetamido]-N-[2-(4-chlorophenyl)-2-hydroxypropyl]bicyclo[1.1.1]pentane-1-carboxamide] was tested, and the EC50 was 1 to 2 µM.
`O=C(COc1ccc(Cl)c(F)c1)NC12CC(C(=O)NC(CO)c3ccc(Cl)cc3)(C1)C2` (stereo not shown) [Compound 318, 3-[2-(4-chloro-3-fluorophenoxy)acetamido]-N-[1-(4-chlorophenyl)-2-hydroxyethyl]bicyclo[1.1.1]pentane-1-carboxamide] gave an EC50 of over 2 µM.
In the case of `O=C(COc1ccc(Cl)c(F)c1)NC12CCC(C(=O)NCc3nc4cc(F)c(F)cc4[nH]3)(CC1)CC2O` (stereo not shown) [Compound 319, 4-[2-(4-chloro-3-fluorophenoxy)acetamido]-N-[(5,6-difluoro-1H-benzimidazol-2-yl)methyl]-3-hydroxybicyclo[2.2.2]octane-1-carboxamide], the EC50 is reported as under 0.25 µM.
Work on `NC(=O)CN(Cc1ccc(Cl)c(F)c1)C(=O)C12CCC(NC(=O)COc3ccc(Cl)c(F)c3)(CC1)CC2` [Compound 320, N-(2-amino-2-oxoethyl)-4-[2-(4-chloro-3-fluorophenoxy)acetamido]-N-[(4-chloro-3-fluorophenyl)methyl]bicyclo[2.2.2]octane-1-carboxamide] yielded an EC50 of 0.5 to 1 µM.
`COc1ccc(CNC(=O)C23CCC(NC(=O)COc4ccc(Cl)c(F)c4)(CC2)C(O)C3)nn1` (stereo not shown) [Compound 321, 4-[2-(4-chloro-3-fluorophenoxy)acetamido]-3-hydroxy-N-[(6-methoxypyridazin-3-yl)methyl]bicyclo[2.2.2]octane-1-carboxamide] was tested, and the EC50 was over 2 µM.
`COc1ccc(CNC(=O)C23CC(NC(=O)COc4ccc(Cl)c(F)c4)(C2)C3)nn1` [Compound 322, 3-[2-(4-chloro-3-fluorophenoxy)acetamido]-N-[(6-methoxypyridazin-3-yl)methyl]bicyclo[1.1.1]pentane-1-carboxamide] showed an EC50 of over 2 µM.
`Cn1c(CNC(=O)C23CCC(NC(=O)COc4ccc(Cl)c(F)c4)(CC2)CC3)nc2cc(F)ccc21` [Compound 323, 4-[2-(4-chloro-3-fluorophenoxy)acetamido]-N-[(5-fluoro-1-methyl-1H-benzimidazol-2-yl)methyl]bicyclo[2.2.2]octane-1-carboxamide] showed an EC50 of under 0.25 µM.
`O=C(COc1ccc(Cl)c(F)c1)NC12CCC(C(=O)NCc3nc4cc(F)c(F)cc4[nH]3)(CC1)CC2` [Compound 324, 4-[2-(4-chloro-3-fluorophenoxy)acetamido]-N-[(5,6-difluoro-1H-benzimidazol-2-yl)methyl]bicyclo[2.2.2]octane-1-carboxamide] showed an EC50 of under 0.25 µM.
`O=C(COc1ccc(Cl)c(F)c1)NC12CCC(C(=O)NCc3nc4ccc(Cl)cc4[nH]3)(CC1)CC2` [Compound 325, N-[(6-chloro-1H-benzimidazol-2-yl)methyl]-4-[2-(4-chloro-3-fluorophenoxy)acetamido]bicyclo[2.2.2]octane-1-carboxamide] gave an EC50 of under 0.25 µM.
In the case of `O=C(COc1ccc(Cl)c(F)c1)NC12CCC(C(=O)NCC(=O)c3ccc(Cl)c(F)c3)(CC1)[C@@H](O)C2` [Compound 326, (2S)-4-[2-(4-chloro-3-fluorophenoxy)acetamido]-N-[2-(4-chloro-3-fluorophenyl)-2-oxoethyl]-2-hydroxybicyclo[2.2.2]octane-1-carboxamide], the EC50 is reported as under 0.25 µM.
Molecule `O=C(COc1ccc(Cl)c(F)c1)NC12CCC(C(=O)NCc3nc4ccccc4[nH]3)(CC1)CC2` [Compound 327, N-[(1H-benzimidazol-2-yl)methyl]-4-[2-(4-chloro-3-fluorophenoxy)acetamido]bicyclo[2.2.2]octane-1-carboxamide] has an EC50 of under 0.25 µM.
Molecule `O=C(O)Cn1c(CNC(=O)C23CC(NC(=O)COc4ccc(Cl)c(F)c4)(C2)C3)nc2cc(F)c(F)cc21` [Compound 328, {2-[({3-[2-(4-chloro-3-fluorophenoxy)acetamido]bicyclo[1.1.1]pentane-1-carbonyl}amino)methyl]-5,6-difluoro-1H-benzimidazol-1-yl}acetic acid] has an EC50 of 1 to 2 µM.
For `O=C(COc1ccc(Cl)c(F)c1)NC12CCC(C(=O)NCc3ccc(C(F)(F)F)cn3)(CC1)C(=O)N2CCO` [Compound 329, 1-[2-(4-chloro-3-fluorophenoxy)acetamido]-2-(2-hydroxyethyl)-3-oxo-N-{[5-(trifluoromethyl)pyridin-2-yl]methyl}-2-azabicyclo[2.2.2]octane-4-carboxamide], the EC50 was under 0.25 µM.
In the case of `CC(NC(=O)C12CC(NC(=O)COc3ccc(Cl)c(F)c3)(C1)C2)c1cc2cc(Cl)ccc2o1` (stereo not shown) [Compound 330, N-[1-(5-chloro-1-benzofuran-2-yl)ethyl]-3-[2-(4-chloro-3-fluorophenoxy)acetamido]bicyclo[1.1.1]pentane-1-carboxamide], the EC50 is reported as 1 to 2 µM.
For `O=C(COc1ccc(Cl)c(F)c1)NC12CC(C(=O)NCc3nc4cc(F)c(F)cc4[nH]3)(C1)C2` [Compound 331, 3-[2-(4-chloro-3-fluorophenoxy)acetamido]-N-[(5,6-difluoro-1H-benzimidazol-2-yl)methyl]bicyclo[1.1.1]pentane-1-carboxamide], the EC50 was under 0.25 µM.
Molecule `O=C(COc1ccc(Cl)c(F)c1)NC12CCC(C(=O)NCc3cc(C(F)(F)F)ccn3)(CC1)CC2` [Compound 332, 4-[2-(4-chloro-3-fluorophenoxy)acetamido]-N-{[4-(trifluoromethyl)pyridin-2-yl]methyl}bicyclo[2.2.2]octane-1-carboxamide] has an EC50 of under 0.25 µM.
With `O=C(COc1ccc(Cl)c(F)c1)NC12CCC(C(=O)NCc3ccc(C(F)(F)F)cn3)(CC1)C(=O)N2` [Compound 333, 1-[2-(4-chloro-3-fluorophenoxy)acetamido]-3-oxo-N-{[5-(trifluoromethyl)pyridin-2-yl]methyl}-2-azabicyclo[2.2.2]octane-4-carboxamide] the EC50 was under 0.25 µM.
For `O=C(COc1ccc(Cl)c(F)c1)NC12CCC(C(=O)NCc3ccc(Cl)c(F)c3)(CC1)OC2` [Compound 334, 4-[2-(4-chloro-3-fluorophenoxy)acetamido]-N-[(4-chloro-3-fluorophenyl)methyl]-2-oxabicyclo[2.2.2]octane-1-carboxamide], the EC50 was 0.25 to 0.5 µM.
`O=C(COc1ccc(Cl)c(F)c1)NC12CCC(C(=O)NCc3ccc(C(F)(F)F)cn3)(CC1)OC2` [Compound 335, 4-[2-(4-chloro-3-fluorophenoxy)acetamido]-N-{[5-(trifluoromethyl)pyridin-2-yl]methyl}-2-oxabicyclo[2.2.2]octane-1-carboxamide] showed an EC50 of under 0.25 µM.
Molecule `O=C(COc1ccc(Cl)c(F)c1)NC12CCC(C(=O)Nc3ccc(OC(F)(F)F)cc3)(CC1)OC2` [Compound 336, 4-[2-(4-chloro-3-fluorophenoxy)acetamido]-N-[4-(trifluoromethoxy)phenyl]-2-oxabicyclo[2.2.2]octane-1-carboxamide] has an EC50 of under 0.25 µM.
`O=C(COc1ccc(Cl)c(F)c1)NC12CCC(C(=O)Nc3ccc(C(F)(F)F)cc3)(CC1)OC2` [Compound 337, 4-[2-(4-chloro-3-fluorophenoxy)acetamido]-N-[4-(trifluoromethyl)phenyl]-2-oxabicyclo[2.2.2]octane-1-carboxamide] was tested, and the EC50 was under 0.25 µM.
`O=C(COc1ccc(Cl)c(F)c1)NC12CCC(C(=O)Nc3ccc(Cl)c(F)c3)(CC1)OC2` [Compound 338, 4-[2-(4-chloro-3-fluorophenoxy)acetamido]-N-(4-chloro-3-fluorophenyl)-2-oxabicyclo[2.2.2]octane-1-carboxamide] was tested, and the EC50 was under 0.25 µM.
`NC(=O)c1ccc(CNC(=O)C23CC(NC(=O)COc4ccc(Cl)c(F)c4)(C2)C3)nc1` [Compound 339, 6-[({3-[2-(4-chloro-3-fluorophenoxy)acetamido]bicyclo[1.1.1]pentane-1-carbonyl}amino)methyl]pyridine-3-carboxamide] gave an EC50 of over 2 µM.
`O=C(COc1ccc(Cl)c(F)c1)NC12CC(C(=O)NCCOc3ccc(Cl)c(F)c3)(C1)C2` [Compound 340, 3-[2-(4-chloro-3-fluorophenoxy)acetamido]-N-[2-(4-chloro-3-fluorophenoxy)ethyl]bicyclo[1.1.1]pentane-1-carboxamide] showed an EC50 of under 0.25 µM.
`O=C(COc1ccc(Cl)c(F)c1)NC12CCC(C(=O)Nc3ccc(OC(F)(F)F)nc3)(CC1)OC2` [Compound 341, 4-[2-(4-chloro-3-fluorophenoxy)acetamido]-N-[6-(trifluoromethoxy)pyridin-3-yl]-2-oxabicyclo[2.2.2]octane-1-carboxamide] was tested, and the EC50 was under 0.25 µM.
In the case of `O=C(COc1ccc(Cl)c(F)c1)NC12CCC(C(=O)NCc3ccc(Cl)cn3)(CC1)OC2` [Compound 342, 4-[2-(4-chloro-3-fluorophenoxy)acetamido]-N-[(5-chloropyridin-2-yl)methyl]-2-oxabicyclo[2.2.2]octane-1-carboxamide], the EC50 is reported as under 0.25 µM.
